The text below walks through data of PMC5769128, “Human UDP-Glucuronosyltransferase 2B4 and 2B7 Are Responsible for Naftopidil Glucuronidation in Vitro” (Frontiers in Pharmacology, 2018).

Series [1] relates to UGT2B4/UGT2B7 (NAF glucuronidation). Put plainly: Inhibition of the glucuronidation of NAF enantiomers by specific UGT inhibitors in pooled HLM. Particulars: human, pooled human liver microsomes, pH 7.5, probe R(+)-NAF 50 μM, S(-)-NAF 20 μM. (Microsomes from liver hold many membrane-bound enzymes, among them those of drug oxidation.)
The conditions of series [2]: rat, ref Himmel, 1994, cited from earlier work.
A further series has as its system animals. Also noted: method as in Himmel, 1994. Particulars: 100 mg/day, ref Himmel, 1994; cited from earlier work.
For series [3] the following is noted: human, after oral treatment; no reference given; cited from earlier work.
The conditions of series [4]: human, ref Himmel, 1994, cited from earlier work.
For series [5], the system named is human liver microsomes (HLM). The series can be described thus: Kinetics of NAF enantiomer glucuronidation by human liver microsomes. In kind it is in vitro ADME. How it is done:
(§1) All glucuronidation assays were conducted in an incubation volume of 200 μL. Incubations were performed at 37°C in 50 mM Tris–HCl buffer (pH 7.5) with 10 mM magnesium chloride, 1 mg protein/mL of enzyme (microsomes and recombinant human UGTs), alamethicin (100 μg of alamethicin/mg microsomal protein), and NAF enantiomers (2.5–80 μM). The reaction was initiated by the addition of UDPGA (5 mM) and incubated at 37°C in a shaking water bath for 45 min. The reaction was terminated by the addition of 200 μL of ice-cold acetonitrile containing the IS (1 μM) and then centrifuged at 5000 ×g for 10 min at 4°C. The supernatant fraction was injected into the RRLC-MS/MS apparatus. Protein concentration (0.5–2 mg/mL) and incubation time (15–180 min) were optimized in preliminary studies to be within initial linear rate conditions.
(§2) Kinetic parameters were assessed in the HLM, RLM, HKM, RKM, and recombinant human UGTs (UGT2B4, 2B7, and 1A9).

On the set-up of series [6]: method as in Liu et al., 2017. Particulars: rat plasma; ref Liu et al., 2017; cited from earlier work.
Another series deals with T1, recombinant human UGT2B4 (Homo sapiens, UniProt P06133).
T1 construct: purchased BD Gentest
T1 sequence (P06133 24-528): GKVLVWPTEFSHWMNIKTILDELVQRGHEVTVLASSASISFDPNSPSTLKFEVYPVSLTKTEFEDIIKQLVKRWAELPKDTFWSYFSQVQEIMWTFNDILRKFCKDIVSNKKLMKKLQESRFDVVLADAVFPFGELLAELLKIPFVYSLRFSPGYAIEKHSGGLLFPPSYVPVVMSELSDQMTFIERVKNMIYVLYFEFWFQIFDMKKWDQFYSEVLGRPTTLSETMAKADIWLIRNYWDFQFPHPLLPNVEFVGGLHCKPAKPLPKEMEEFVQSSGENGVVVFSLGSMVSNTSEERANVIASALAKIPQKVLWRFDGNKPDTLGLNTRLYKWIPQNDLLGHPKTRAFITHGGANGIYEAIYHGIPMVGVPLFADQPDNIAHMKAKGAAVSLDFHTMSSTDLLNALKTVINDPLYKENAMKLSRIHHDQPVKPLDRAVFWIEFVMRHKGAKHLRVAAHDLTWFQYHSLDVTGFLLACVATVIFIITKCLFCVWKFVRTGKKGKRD
The series can be described thus: Kinetics of NAF enantiomer glucuronidation by recombinant UGT2B4. It is filed as in vitro ADME. The procedure: as §1, §2

The target of a further series is T2, recombinant human UGT1A9 (Homo sapiens, UniProt O60656).
T2 construct: purchased BD Gentest
T2 sequence (O60656 26-530): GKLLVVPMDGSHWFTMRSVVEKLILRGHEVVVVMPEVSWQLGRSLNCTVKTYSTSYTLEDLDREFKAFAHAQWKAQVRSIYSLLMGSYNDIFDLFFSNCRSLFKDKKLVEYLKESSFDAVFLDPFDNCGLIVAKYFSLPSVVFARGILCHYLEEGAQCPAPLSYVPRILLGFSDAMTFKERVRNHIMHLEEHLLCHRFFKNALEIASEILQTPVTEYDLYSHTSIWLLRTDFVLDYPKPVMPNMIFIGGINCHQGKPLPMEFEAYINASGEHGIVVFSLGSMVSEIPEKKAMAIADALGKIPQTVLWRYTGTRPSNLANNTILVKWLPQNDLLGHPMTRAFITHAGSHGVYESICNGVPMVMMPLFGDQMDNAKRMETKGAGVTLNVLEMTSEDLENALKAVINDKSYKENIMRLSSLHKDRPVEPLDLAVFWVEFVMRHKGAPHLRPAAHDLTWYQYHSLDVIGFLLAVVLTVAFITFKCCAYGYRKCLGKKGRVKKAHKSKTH
Put plainly: Kinetics of NAF enantiomer glucuronidation by recombinant UGT1A9. It is filed as in vitro ADME. The procedure:
as §1, §2

A further series concerns the target T3, UGT2B7 (Homo sapiens, UniProt P16662).
T3 sequence (P16662 24-529): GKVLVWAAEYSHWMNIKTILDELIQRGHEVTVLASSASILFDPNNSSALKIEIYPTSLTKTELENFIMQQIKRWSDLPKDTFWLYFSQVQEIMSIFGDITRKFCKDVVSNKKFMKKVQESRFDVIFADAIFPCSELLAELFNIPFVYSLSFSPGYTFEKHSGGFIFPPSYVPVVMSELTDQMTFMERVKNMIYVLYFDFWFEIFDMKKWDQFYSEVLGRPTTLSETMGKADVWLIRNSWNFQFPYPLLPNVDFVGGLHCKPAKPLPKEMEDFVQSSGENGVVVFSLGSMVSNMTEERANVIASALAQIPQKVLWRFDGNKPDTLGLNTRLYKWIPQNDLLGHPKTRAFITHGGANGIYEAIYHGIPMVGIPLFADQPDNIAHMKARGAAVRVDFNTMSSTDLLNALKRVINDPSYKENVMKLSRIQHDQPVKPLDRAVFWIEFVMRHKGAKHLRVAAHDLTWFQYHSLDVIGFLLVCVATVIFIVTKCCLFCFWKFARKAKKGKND
Put plainly: Kinetics of NAF enantiomer glucuronidation by recombinant UGT2B7. In kind it is in vitro ADME. Also noted: purchased BD Gentest. The procedure: as §1, §2

Series [7] concerns human kidney microsomes (HKM). Put plainly: Kinetics of NAF enantiomer glucuronidation by human kidney microsomes. In kind it is in vitro ADME. How it is done:
as §1, §2

Series [8] deals with NAF glucuronidation in pooled HLM (UGT2B4/UGT2B7, UGT1A9). Put plainly: Inhibition of the glucuronidation of NAF enantiomers by specific UGT inhibitors in pooled HLM. Particulars: inhibitor 5, 50 μM; pooled HLM.
Substrate in series [9]: COc1ccccc1N1CCN(C[C@@H](O)COc2cccc3ccccc23)CC1
The series can be described thus: cells, lysate or membranes named. Particulars: pH 7.5, 37.0 °C.

Substrate in series [10]: COc1ccccc1N1CCN(C[C@H](O)COc2cccc3ccccc23)CC1
Put plainly: cells, lysate or membranes named. Particulars: pH 7.5, 37.0 °C.

Where [11] appears, read: other: NAF glucuronidation by UGT2B7.
Where [12] appears, read: other: NAF glucuronidation by UGT2B4.

The inhibition is the relative decrease from the control value, in per cent. Read a high inhibition as a response far below the control. A word on the bioavailability: it is dose-corrected exposure relative to a reference, in per cent. The term Vmax denotes the top rate of the reaction or transport when substrate is in excess. The Km is the concentration of substrate that gives half-maximal velocity.

Where two headings read alike, the source gives them in different places. Some results are limits rather than exact numbers.

Turning to `OC(Cn1cncn1)(Cn1cncn1)c1ccc(F)cc1F` [Fluconazole, fluconazole], in [1], the inhibition at 45 min, 0.25 mM was roughly 35% and the inhibition at 45 min, 2.5 mM was roughly 55%.

Regarding `COc1ccccc1N1CCN(CC(O)COc2cccc3ccccc23)CC1` (stereo not shown) [NAF, Naftopidil], the bioavailability in series [2] (Liu et al., 2015, 2017) was 6.8–14.5%; in series [2] it was 9%; in series [4] (Liu et al., 2015, 2017), less than 20%; in [4] it was 20%. The “adverse findings at high doses” value in the series on animals was “reduced food consumption and body weight gain, apathy, diarrhea, proteinuria, and slightly increased levels of alkaline phosphatase”. Besides, the plasma levels in series [3] is less than 10 µM.

Take `COc1ccccc1N1CCN(CC(COc2cccc3ccccc23)OC2OC(C(=O)O)C(O)C(O)C2O)CC1` (stereo not drawn) [R(+)-NAF-G]: the Kinetics type result in [5] was “Michaelis–Menten”; at recombinant human UGT2B4 it was “Substrate inhibition”; at recombinant human UGT1A9, “Substrate inhibition”; on UGT2B7, “Substrate inhibition”; in series [7], “Michaelis–Menten”. Moreover, the maximum rate (Vmax) in [5] was found to be 3330 ± 131 pmol/min/mg; at recombinant human UGT2B4, 264 ± 38 pmol/min/mg; at recombinant human UGT1A9, 34 ± 2 pmol/min/mg; on UGT2B7, 1043 ± 152 pmol/min/mg; in series [7] it was 2786 ± 138 pmol/min/mg. The “level of glucuronide relative to parent enantiomer” value in series [6] is recorded as “six”.

In the case of `COc1ccccc1N1CCN(CC(COc2cccc3ccccc23)OC2OC(C(=O)O)C(O)C(O)C2O)CC1` (stereo not drawn) [S(-)-NAF-G], the Kinetics type entry in series [5] is “Michaelis–Menten”; at recombinant human UGT2B4, “Substrate inhibition”; at recombinant human UGT1A9, “Michaelis–Menten”; on UGT2B7 it was “Substrate inhibition”; in series [7] it was “Substrate inhibition”. Further, the maximum rate (Vmax) is reported as 3472 ± 129 pmol/min/mg in [5]; 1976 ± 158 pmol/min/mg at recombinant human UGT2B4; 6.0 ± 2.2 pmol/min/mg on recombinant human UGT1A9; 1331 ± 298 pmol/min/mg on UGT2B7; 1957 ± 100 pmol/min/mg in [7]. Moreover, the “level of glucuronide relative to parent enantiomer” value in series [6] is “threefold”.

As for `O=C(O)c1cccnc1Nc1cccc(C(F)(F)F)c1` [niflumic acid], the “Inhibition of NAF glucuronidation” value in series [8] was “could not inhibit NAF glucuronidation”.

B1: recombinant human UGT2B7 (Homo sapiens) (protein)
chain: T3 sequence (P16662 24-529)
As to B1, in series [9] (setting [11]), the Km amounted to 21 µM, the Vmax amounted to 1043 pmol/min/mg and the Vmax/Km amounted to 50 µL/min/mg. For the same molecule, in series [10] (setting [11]), the Km came to 38 µM and the Vmax came to 1331 pmol/min/mg.

B2: recombinant human UGT2B4 (Homo sapiens) (protein)
chain: T1 sequence (P06133 24-528)
Regarding B2, in [9] (setting [12]), the Km stood at 51 µM and the Vmax/Km came to 5.2 µL/min/mg. Moreover, in series [10] (setting [12]), the Km is 55 µM and the Vmax stood at 1976 pmol/min/mg.
